Results published in paper PMC6525019 (Cell chemical biology, 2019).

What was measured:
[1] = biological target: T1, RibBX (Acinetobacter baumannii, UniProt V5V8R9); experiment: colorimetric DHBPS assay; assay type: biochemical
T1 sequence (V5V8R9 1-373): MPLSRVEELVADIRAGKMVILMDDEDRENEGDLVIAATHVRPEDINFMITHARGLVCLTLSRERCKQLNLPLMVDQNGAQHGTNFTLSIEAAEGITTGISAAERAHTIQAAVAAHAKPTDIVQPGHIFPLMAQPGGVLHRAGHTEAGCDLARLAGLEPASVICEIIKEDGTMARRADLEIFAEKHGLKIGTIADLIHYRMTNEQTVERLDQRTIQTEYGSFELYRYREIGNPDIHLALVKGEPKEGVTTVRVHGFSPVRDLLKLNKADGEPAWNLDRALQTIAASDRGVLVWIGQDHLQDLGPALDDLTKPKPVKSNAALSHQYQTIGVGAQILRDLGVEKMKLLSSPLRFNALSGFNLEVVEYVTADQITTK

[2] = biological target: T1, RibBX; experiment: isothermal titration calorimetry; assay type: binding
[3] = biological target: A. baumannii RibBX (3,4-dihydroxy-2-butanone 4-phosphate synthase (DHBPS; RibB) fusion protein) (Acinetobacter baumannii ATCC 17978); experiment: SEC
[4] = biological target: A. baumannii RibBX (3,4-dihydroxy-2-butanone 4-phosphate synthase (DHBPS; RibB) fusion protein) (Acinetobacter baumannii ATCC 17978); experiment: crystal structure

stoichiometry N [3]	stoichiometry N [4]	Compound	Ki [1]	Kd [2]
–	–	Cc1cc2nc3c(=O)[nH]c(=O)nc-3n(C[C@H](O)[C@H](O)[C@H](O)COP(=O)(O)O)c2cc1C [FMN]	7.8 µM	0.714 µM
2	4	A. baumannii RibBX (3,4-dihydroxy-2-butanone 4-phosphate synthase (DHBPS; RibB) fusion protein) (enzyme)	–	–
